# Measurements reported in PubChem BioAssay (NCI).
#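 All cell lines were grown in 96-well plates and treated with compound for 48 hours. Abbreviation: GI50, concentration required for 50% inhibition of growth. TGI denotes the concentration required for complete inhibition of growth.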
# Tests used:
# Test in all cases: NCI-60 cell line screen, 48 h
# SF-539 CNS = system: SF-539 CNS
# BT-549 breast = system: BT-549 breast
# U251 CNS = system: U251 CNS
# SNB-75 CNS = system: SNB-75 CNS
# TK-10 renal = system: TK-10 renal
# KM12 colon = system: KM12 colon
# MCF7 breast = system: MCF7 breast
# HL-60(TB) leukemia = system: HL-60(TB) leukemia
# CCRF-CEM leukemia = system: CCRF-CEM leukemia
# UACC-257 melanoma = system: UACC-257 melanoma
# T-47D breast = system: T-47D breast
# NCI/ADR-RES ovarian = system: NCI/ADR-RES ovarian
# UO-31 renal = system: UO-31 renal
# SK-MEL-5 melanoma = system: SK-MEL-5 melanoma
# HCC-2998 colon = system: HCC-2998 colon
# CAKI-1 renal = system: CAKI-1 renal
# OVCAR-3 ovarian = system: OVCAR-3 ovarian
# MDA-MB-231 breast = system: MDA-MB-231 breast
# MALME-3M melanoma = system: MALME-3M melanoma
# COLO 205 colon = system: COLO 205 colon
# HOP-62 NSCLC = system: HOP-62 NSCLC
# EKVX NSCLC = system: EKVX NSCLC
# NCI-H226 lung = system: NCI-H226 lung
# K-562 leukemia = system: K-562 leukemia
# OVCAR-8 ovarian = system: OVCAR-8 ovarian
# DU-145 prostate = system: DU-145 prostate
# SK-OV-3 ovarian = system: SK-OV-3 ovarian
# M14 melanoma = system: M14 melanoma
# SF-295 CNS = system: SF-295 CNS
# MOLT-4 leukemia = system: MOLT-4 leukemia
# PC-3 prostate = system: PC-3 prostate
# 786-0 renal = system: 786-0 renal
# HT29 colon = system: HT29 colon
# A549 NSCLC = system: A549 NSCLC
# IGROV1 ovarian = system: IGROV1 ovarian
# A498 renal = system: A498 renal
# ACHN renal = system: ACHN renal
# SW-620 colon = system: SW-620 colon
# SK-MEL-28 melanoma = system: SK-MEL-28 melanoma
# LOX IMVI melanoma = system: LOX IMVI melanoma
# SF-268 CNS = system: SF-268 CNS
# SN12C renal = system: SN12C renal
# SNB-19 CNS = system: SNB-19 CNS
# HS 578T breast = system: HS 578T breast
# HCT-116 colon = system: HCT-116 colon
# RPMI-8226 leukemia = system: RPMI-8226 leukemia
# HCT-15 colon = system: HCT-15 colon
# SK-MEL-2 melanoma = system: SK-MEL-2 melanoma
# OVCAR-4 ovarian = system: OVCAR-4 ovarian
# OVCAR-5 ovarian = system: OVCAR-5 ovarian
# SR leukemia = system: SR leukemia
# UACC-62 melanoma = system: UACC-62 melanoma
# NCI-H460 lung = system: NCI-H460 lung
# RXF 393 renal = system: RXF 393 renal
# MDA-MB-435 = system: MDA-MB-435
# HOP-92 NSCLC = system: HOP-92 NSCLC
# NCI-H522 lung = system: NCI-H522 lung
# NCI-H23 lung = system: NCI-H23 lung
smiles,measurement,setting,value
c1cc[n+](C2c3ccccc3C([n+]3ccccc3)c3ccccc32)cc1 (stereo unspecified),GI50,SF-539 CNS,2.59 µM
same,TGI,SF-539 CNS,17.3 µM
same,GI50,BT-549 breast,3.64 µM
same,TGI,BT-549 breast,14.6 µM
same,GI50,U251 CNS,3.14 µM
same,TGI,U251 CNS,> 90.8 µM
same,GI50,SNB-75 CNS,1.13 µM
same,TGI,SNB-75 CNS,3.15 µM
same,GI50,TK-10 renal,19.2 µM
same,TGI,TK-10 renal,> 100 µM
same,GI50,KM12 colon,6.43 µM
same,TGI,KM12 colon,50.1 µM
same,GI50,MCF7 breast,11.9 µM
same,TGI,MCF7 breast,> 100 µM
same,GI50,HL-60(TB) leukemia,22.6 µM
same,TGI,HL-60(TB) leukemia,> 100 µM
same,GI50,CCRF-CEM leukemia,10.7 µM
same,TGI,CCRF-CEM leukemia,> 100 µM
same,GI50,UACC-257 melanoma,5.93 µM
same,TGI,UACC-257 melanoma,37 µM
same,GI50,T-47D breast,10.1 µM
same,TGI,T-47D breast,79.6 µM
same,GI50,NCI/ADR-RES ovarian,> 100 µM
same,TGI,NCI/ADR-RES ovarian,> 100 µM
same,GI50,UO-31 renal,> 100 µM
same,TGI,UO-31 renal,> 100 µM
same,GI50,SK-MEL-5 melanoma,7.91 µM
same,TGI,SK-MEL-5 melanoma,23.2 µM
same,GI50,HCC-2998 colon,10.3 µM
same,TGI,HCC-2998 colon,31.8 µM
same,GI50,CAKI-1 renal,> 100 µM
same,TGI,CAKI-1 renal,> 100 µM
same,GI50,OVCAR-3 ovarian,14.1 µM
same,TGI,OVCAR-3 ovarian,> 77 µM
same,GI50,MDA-MB-231 breast,21.6 µM
same,TGI,MDA-MB-231 breast,> 100 µM
same,GI50,MALME-3M melanoma,3.9 µM
same,TGI,MALME-3M melanoma,18.6 µM
same,GI50,COLO 205 colon,4.24 µM
same,TGI,COLO 205 colon,22.2 µM
same,GI50,HOP-62 NSCLC,5.77 µM
same,TGI,HOP-62 NSCLC,71.1 µM
same,GI50,EKVX NSCLC,3.39 µM
same,TGI,EKVX NSCLC,> 100 µM
same,GI50,NCI-H226 lung,17.9 µM
same,TGI,NCI-H226 lung,> 100 µM
same,GI50,K-562 leukemia,12 µM
same,TGI,K-562 leukemia,> 100 µM
same,GI50,OVCAR-8 ovarian,6.23 µM
same,TGI,OVCAR-8 ovarian,> 100 µM
same,GI50,DU-145 prostate,14.2 µM
same,TGI,DU-145 prostate,43.8 µM
same,GI50,SK-OV-3 ovarian,52.5 µM
same,TGI,SK-OV-3 ovarian,> 100 µM
same,GI50,M14 melanoma,41 µM
same,TGI,M14 melanoma,> 100 µM
same,GI50,SF-295 CNS,4.2 µM
same,TGI,SF-295 CNS,80.9 µM
same,GI50,MOLT-4 leukemia,25.8 µM
same,TGI,MOLT-4 leukemia,> 100 µM
same,GI50,PC-3 prostate,4.8 µM
same,TGI,PC-3 prostate,> 100 µM
same,GI50,786-0 renal,15.9 µM
same,TGI,786-0 renal,> 100 µM
same,GI50,HT29 colon,12.6 µM
same,TGI,HT29 colon,> 75.5 µM
same,GI50,A549 NSCLC,26.6 µM
same,TGI,A549 NSCLC,> 100 µM
same,GI50,IGROV1 ovarian,1.96 µM
same,TGI,IGROV1 ovarian,> 82.8 µM
same,GI50,A498 renal,15.8 µM
same,TGI,A498 renal,73.7 µM
same,GI50,ACHN renal,> 100 µM
same,TGI,ACHN renal,> 100 µM
same,GI50,SW-620 colon,8.52 µM
same,TGI,SW-620 colon,> 100 µM
same,GI50,SK-MEL-28 melanoma,5.92 µM
same,TGI,SK-MEL-28 melanoma,> 44.5 µM
same,GI50,LOX IMVI melanoma,15.8 µM
same,TGI,LOX IMVI melanoma,> 100 µM
same,GI50,SF-268 CNS,2.13 µM
same,TGI,SF-268 CNS,11.8 µM
same,GI50,SN12C renal,3.39 µM
same,TGI,SN12C renal,25.4 µM
same,GI50,SNB-19 CNS,4.13 µM
same,TGI,SNB-19 CNS,42.8 µM
same,GI50,HS 578T breast,4.4 µM
same,TGI,HS 578T breast,27 µM
same,GI50,HCT-116 colon,10.7 µM
same,TGI,HCT-116 colon,> 100 µM
same,GI50,RPMI-8226 leukemia,6.96 µM
same,TGI,RPMI-8226 leukemia,> 86.4 µM
same,GI50,HCT-15 colon,> 100 µM
same,TGI,HCT-15 colon,> 100 µM
same,GI50,SK-MEL-2 melanoma,15 µM
same,TGI,SK-MEL-2 melanoma,> 66.4 µM
same,GI50,OVCAR-4 ovarian,18.4 µM
same,TGI,OVCAR-4 ovarian,> 100 µM
same,GI50,OVCAR-5 ovarian,26.7 µM
same,TGI,OVCAR-5 ovarian,> 100 µM
same,GI50,SR leukemia,7.64 µM
same,TGI,SR leukemia,> 100 µM
same,GI50,UACC-62 melanoma,11.3 µM
same,TGI,UACC-62 melanoma,28.7 µM
same,GI50,NCI-H460 lung,21.1 µM
same,TGI,NCI-H460 lung,> 89.4 µM
same,GI50,RXF 393 renal,19.5 µM
same,TGI,RXF 393 renal,86.2 µM
same,GI50,MDA-MB-435,5.89 µM
same,TGI,MDA-MB-435,23 µM
same,GI50,HOP-92 NSCLC,4.45 µM
same,TGI,HOP-92 NSCLC,50.9 µM
same,GI50,NCI-H522 lung,4.67 µM
same,TGI,NCI-H522 lung,30.7 µM
same,GI50,NCI-H23 lung,5.11 µM
same,TGI,NCI-H23 lung,> 52.4 µM
